Test results as given in PMC7396128 (Nature medicine, 2019).

Tests used:
[1] = system: HIV-1IIIB; assay: ultrastructural analysis of HIV-1 virions by electron microscopy; format: cell-based; settings: 500 nM
[2] = system: HIV-1; settings: 500 nM, 12 hpi, MOI 70
[3] = system: MT-4 cells; settings: read-out: mean 50% cytotoxicity concentration, CC50
[4] = system: HIV-1IIIB; format: cell-based; settings: MT-4 cells
[5] = system: HIV-1YU2; assay: antiviral efficacy in HIV-1YU2-infected humanized NOG mice; format: in vivo

With COC(=O)N[C@H](C(=O)N[C@@H](Cc1ccccc1)[C@@H](O)CN(Cc1ccc(-c2ccccn2)cc1)NC(=O)[C@@H](NC(=O)OC)C(C)(C)C)C(C)(C)C [ATV, atazanavir] the “capsid morphology in released virions” value [1] was “predominantly contained immature Gag/Gag-Pol lattices”.

With C[C@@H]1CCO[C@H]2Cn3cc(C(=O)NCc4ccc(F)cc4F)c(=O)c(O)c3C(=O)N12 [DTG, dolutegravir] the “effect on capsid and vDNA fluorescent signals” value [2] was “did not alter either fluorescent signal”.

With Cc1[nH]c2ccccc2c1CC(=O)N[C@@H](Cc1ccccc1)C(=O)N(C)c1ccccc1 [PF74] the CC50 [3] was 32.2 ± 9.3 µM, the “selectivity index (CC50/EC50 ratio)” value [4] was 26 and the “fold weaker antiviral potency than GS-CA1” value ([4]; HIV-1IIIB) was > 5,000 fold. It also gave an EC50 ([4]; read-out: mean EC50, HIV-1IIIB, n = 43) of 1.24 µM.

In the case of Cc1cc(/C=C/C#N)cc(C)c1Nc1ccnc(Nc2ccc(C#N)cc2)n1 [RPV, rilpivirine], the “treated animals with rapid emergence of drug resistance” value ([5]; 160 mg/kg every 2 weeks) is reported as 80%, the “animals returning to baseline viremia by week 10” value ([5]; 160 mg/kg s.c. daily for 7 days then every two weeks) is reported as 4/5 and the capsid levels [2] is reported as 100 % of control. For the same compound, the vDNA [2] was 14 % of control.
